Read-outs that look alike come from different tables or passages of the source.
Experiments:
pig skin dermis = assay: DNA synthesis (3H-thymidine) of pig skin organ cultures, dermis; format: cell-based
Protocol: (§1) Freshly excised 2-3 week old piglet skins were obtained from Buckshire Farms, Pa. The pig skins were washed exhaustively first with soap and then with 10× antibiotic containing medium (penicillin, streptomycin). The pig skins were then dermatomed at 200 microns thickness. Seven (7) mm punch biopsies were made from these washed pig skins. The biopsies are then washed again with the 10× antibiotic medium and finally with normal DMEM (2 washes). Three (3) biopsies were incubated in each transwell plates, epidermal side up, with 1 ml of serum free DMEM fed from the bottom of the plates. Experiments were started 3 days after the biopsies were equilibrated under these conditions. Three (3) days after equilibrating the pig skin organ cultures prepared as described above, the medium was removed, 1 ml of fresh medium was added, and the wells were treated with different concentrations of lactic acid by adding from a 100 fold concentrated stock in water, directly into the medium. Simultaneous with the addition of lactic acid, selected cultures were also exposed to the South or North pole of a bar magnet or to the Bioflex magnet. The magnets were placed on top of the culture dish to expose the epidermis directly (the organ culture is carried out with the epidermis side on top). Three (3) days later, medium was changed, lactic acid was re-added, and 10 uCi ^3H-thymidine was added to each well. Plates were incubated for a further 24 hrs. At the end of the incubation period, biopsies were removed, washed in PBS for 1 hr with shaking, and incubated overnight in 10 ml of 2M sodium bromide with shaking to split the epidermis from the dermis. The biopsies were washed with PBS, and the epidermis was peeled off from dermis carefully using a scalpel. The epidermis and dermis were digested with 1 ml of 0.5N NaOH overnight at 50 C, 200 ul was used for counting the radioactivity. The DNA synthesis rate was calculated as cpm/7 mm punch biopsy for dermis or epidermis and in some experiments expressed also as % of controls. All organ culture experiments were conducted with at least 6 replicates, and the mean+/−standard deviation was calculated for statistical analysis using Students t-test. In example 7, dermal proliferation was measured as a function of lactic acid and magnetic pole treatment.

pig epidermal cells = assay: DNA synthesis (3H-thymidine) of pig skin organ cultures, epidermis; format: cell-based; conditions: for activity at 20 µM / activity at 200 µM / activity at 2000 µM: Sus scrofa, read-out: DNA synthesis AS % OF CONTROL
Protocol: as §1, with “t-test.” for “t-test. In example 7, dermal proliferation was measured as a function of lactic acid and magnetic pole treatment.”

[1] = Example 7, dermis, LA + North pole
[2] = Example 7, dermis, LA + South pole
[3] = Example 5, 0.02 mM LA + South pole of bar magnet
[4] = Example 5, 0.02 mM LA, no magnet
[5] = Example 5, 0.2 mM LA + South pole of bar magnet
[6] = Example 5, 0.2 mM LA, no magnet
[7] = Example 5, 2.0 mM LA + South pole of bar magnet
[8] = Example 5, 2.0 mM LA, no magnet
[9] = Example 6, 0.2 mM LA + North pole
[10] = Example 6, 0.2 mM LA + South pole
[11] = Example 6, 0.2 mM LA, no magnet

SMILES: CC(O)C(=O)O (centres unmarked) [LA, lactic acid]
- DNA SYNTHESIS (CPM/BIOPSY) MEAN +/- STD (pig skin dermis; Example 7, dermis, 0.2 mM LA, no magnet): 15306 +/− 4656 CPM/BIOPSY
- DNA SYNTHESIS (CPM/BIOPSY) MEAN +/- STD (pig skin dermis; [1]): 16886 +/− 2227 CPM/BIOPSY
- DNA synthesis AS % OF CONTROL (pig skin dermis; [1]): 178%
- DNA SYNTHESIS (CPM/BIOPSY) MEAN +/- STD (pig skin dermis; [2]): 17244 +/− 4259 CPM/BIOPSY
- DNA synthesis AS % OF CONTROL (pig skin dermis; [2]): 182%
- synergy of magnet with lactic acid in the dermis (pig skin dermis; Example 7, combinations of magnet with lactic acid): no synergy
- effect on dermal proliferation (pig skin dermis; Example 7, lactic acid alone): significant stimulation
- activity at 200 µM (pig skin dermis; Sus scrofa, Example 7, dermis, 0.2 mM LA, no magnet, read-out: DNA synthesis AS % OF CONTROL): 162%
- DNA SYNTHESIS (CPM/BIOPSY) MEAN +/- STD (pig epidermal cells; [3]): 7915 +/− 2807 CPM/BIOPSY
- DNA SYNTHESIS (CPM/BIOPSY) MEAN +/- STD (pig epidermal cells; [4]): 4670 +/− 497 CPM/BIOPSY
- DNA SYNTHESIS (CPM/BIOPSY) MEAN +/- STD (pig epidermal cells; [5]): 8402 +/− 512 CPM/BIOPSY
- DNA SYNTHESIS (CPM/BIOPSY) MEAN +/- STD (pig epidermal cells; [6]): 5030 +/− 958 CPM/BIOPSY
- epidermal proliferation, % over control (pig epidermal cells; Example 5, 2 mM LA + South pole): 165%
- DNA SYNTHESIS (CPM/BIOPSY) MEAN +/- STD (pig epidermal cells; [7]): 11523 +/− 2123 CPM/BIOPSY
- synergy of LA and South pole on epidermal proliferation (pig epidermal cells; Example 5, 2 mM LA + South pole vs additive response): Synergies were observed
- epidermal proliferation, % over control (pig epidermal cells; Example 5, 2 mM LA alone): 43%
- DNA SYNTHESIS (CPM/BIOPSY) MEAN +/- STD (pig epidermal cells; [8]): 6216 +/− 1035 CPM/BIOPSY
- effect on epidermal proliferation (pig epidermal cells; Example 5, 0.02 and 0.2 mM lactic acid, no magnet): no significant effect
- DNA SYNTHESIS (CPM/BIOPSY) MEAN +/- STD (pig epidermal cells; [9]): 69726 +/− 29913 CPM/BIOPSY
- proliferative response, % over control (pig epidermal cells; [9]): 112%
- synergy of LA with North pole on epidermal proliferation (pig epidermal cells; Example 6, 0.2 mM LA + North pole vs north alone control): not synergistic
- DNA SYNTHESIS (CPM/BIOPSY) MEAN +/- STD (pig epidermal cells; [10]): 81393 +/− 11738 CPM/BIOPSY
- proliferative response, % over control (pig epidermal cells; [10]): 146%
- synergy of LA with South pole on epidermal proliferation (pig epidermal cells; Example 6, 0.2 mM LA + South pole vs LA alone or South pole alone): synergistic
- DNA SYNTHESIS (CPM/BIOPSY) MEAN +/- STD (pig epidermal cells; [11]): 41076 +/− 24767 CPM/BIOPSY
- effect on epidermal proliferation (pig epidermal cells; Example 6, 0.2 mM Lactic acid alone): no significant effect
- activity at 20 µM (pig epidermal cells; [3]): 182%
- activity at 20 µM (pig epidermal cells; [4]): 107%
- activity at 200 µM (pig epidermal cells; [5]): 193%
- activity at 200 µM (pig epidermal cells; [6]): 115%
- activity at 2000 µM (pig epidermal cells; [7]): 265%
- activity at 2000 µM (pig epidermal cells; [8]): 143%
- activity at 200 µM (pig epidermal cells; [9]): 211%
- activity at 200 µM (pig epidermal cells; [10]): 246%
- activity at 200 µM (pig epidermal cells; [11]): 124%

From patent publication US6761896B1, “Skin cosmetic care system and method” (Unilever Home & Personal Care USA, division of Conopco, Inc., priority 1998, dated 2004)
